{
  "source": "patent US8889679B2",
  "about": "“Glutaraldehyde based biocidal compositions and methods of use” (Dow Global Technologies LLC, priority 2009, dated 2014)",
  "key": {"[1]": {"test_system": "oil field isolated anaerobic SRB consortium", "test": "Biocidal efficacy against anaerobic bacteria: minimum biocide concentration for complete bacteria kill (MBC), 40° C., 24 hour", "format": "cell-based, anaerobic sulfate-reducing bacteria (SRB)", "conditions": "for MBC (active ppm) Glutaraldehyde: glutaraldehyde concentration alone or in combination", "procedure": "(§1) The synergy indexes reported in the following examples are calculated using the following equation: Synergy Index=Ca/CA+Cb/CB\n(§2) where Ca: Concentration of biocide A required to achieve a certain level or complete bacterial kill when used in combination;\n(§3) CA: Concentration of biocide A required to achieve a certain level or complete bacterial kill when used alone;\n(§4) Cb: Concentration of biocide B required to achieve a certain level or complete bacterial kill when used in combination; and\n(§5) CB: Concentration of biocide B required to achieve a certain level or complete bacterial kill when used alone.\n(§6) A synergy index (SI) of 1 indicates additivity, a synergy index of less than 1 indicates synergy, and a synergy index greater than 1 indicates antagonism.\n(§7) Various methods known to those skilled in the art can be used for evaluating biocidal efficacy. In the examples below, aliquots of the biocide-treated samples are removed at predetermined time points and the biocide concentration required to achieve a certain level or complete bacterial kill is determined by culture-based methods including serial dilution. In some examples, the method is based or adapted (e.g., for high temperature testing or for the presence of sulfide) from the methodology described in international patent publication WO 2009/039004, which is incorporated herein by reference.\nInside an anaerobic chamber, a deaerated sterile salt solution (3.1183 g of NaCl, 1.3082 mg of NaHCO3, 47.70 mg of KCl, 72.00 mg of CaCl2, 54.49 mg of MgSO4, 172.28 mg of Na2SO4, 43.92 mg of Na2CO3 in 1 L water) is contaminated with an oil field isolated anaerobic SRB consortium at final bacterial concentrations of 10^5-10^6 CFU/mL. Aliquots of this contaminated water are then treated with biocide solution (single or in combination) at various concentrations."}, "[2]": {"test_system": "oil field isolated anaerobic SRB consortium", "test": "Biocidal efficacy against anaerobic bacteria for high temperature and sulfide-rich conditions: lowest concentration for 99.9% bacterial reduction in 2 hours", "format": "cell-based, anaerobic sulfate-reducing bacteria (SRB)", "conditions": "80° C., 10 ppm sulfide ion; for Dosage required for 99.9% bacterial kill in 2 h (active ppm) Glutaraldehyde: glutaraldehyde concentration alone or in combination", "procedure": "as §1, §2, §3, §4, §5, §6, §7\nInside an anaerobic chamber, biocide solutions (single or in combination) are prepared at various concentrations in a salt solution (3.1183 g of NaCl, 1.3082 mg of NaHCO3, 47.70 mg of KCl, 72.00 mg of CaCl2, 54.49 mg of MgSO4, 172.28 mg of Na2SO4, 43.92 mg of Na2CO3 in 1 L water). The biocide solutions are challenged with 10^4 to 10^5 CFU/mL of an oil field isolated anaerobic SRB consortium and 10 ppm sulfide ion. The mixtures are incubated at 80° C. under anaerobic conditions for 2 hours after which the biocidal efficacy against the field SRB consortium is evaluated. The biocidal efficacy is determined by selecting the lowest biocide concentration required to achieve at least a 99.9% bacterial reduction in 2 hours. Synergy index is then calculated."}, "[3]": {"conditions": "glutaraldehyde/CTAC series, CTAC concentration alone or in combination"}, "[4]": {"conditions": "glutaraldehyde/HHT series, HHT concentration alone or in combination"}, "[5]": {"conditions": "glutaraldehyde/tris nitro series"}, "[6]": {"conditions": "glutaraldehyde/tris nitro series, tris nitro concentration alone or in combination"}},
  "data": [
    {"smiles": "ClC=CC[N+]12CN3CN(CN(C3)C1)C2", "note": "[CTAC, 1-(3-chloroallyl)-3,5,7-triaza-1-azoniaadamantane]", "values": [
      {"measurement": "MBC (active ppm) CTAC", "setting": "[1]; [3]", "value": 133.3, "unit": "active ppm"},
      {"measurement": "Dosage required for 99.9% bacterial kill in 2 h (active ppm) CTAC", "setting": "[2]; [3]", "value": 375.0, "unit": "active ppm"}
    ]},
    {"smiles": "OCCN1CN(CCO)CN(CCO)C1", "note": "[HHT, hexahydro-1,3,5-tris(2-hydroxyethyl)-s-triazine]", "values": [
      {"measurement": "MBC (active ppm) HHT", "setting": "[1]; [4]", "value": 133.3, "unit": "active ppm"},
      {"measurement": "Dosage required for 99.9% bacterial kill in 2 h (active ppm) HHT", "setting": "[2]; [4]", "value": 125.0, "unit": "active ppm"}
    ]},
    {"smiles": "O=CCCCC=O", "note": "[glutaraldehyde]", "values": [
      {"measurement": "MBC (active ppm) Glutaraldehyde", "setting": "[1]; glutaraldehyde/CTAC series", "value": 5.3, "unit": "active ppm"},
      {"measurement": "MBC (active ppm) Glutaraldehyde", "setting": "[1]; glutaraldehyde/HHT series", "value": 4.0, "unit": "active ppm"},
      {"measurement": "MBC (active ppm) Glutaraldehyde", "setting": "[1]; [5]", "value": 4.0, "unit": "active ppm"},
      {"measurement": "Dosage required for 99.9% bacterial kill in 2 h (active ppm) Glutaraldehyde", "setting": "[2]; glutaraldehyde/CTAC series", "value": 8.7, "unit": "active ppm"},
      {"measurement": "Dosage required for 99.9% bacterial kill in 2 h (active ppm) Glutaraldehyde", "setting": "[2]; glutaraldehyde/HHT series", "value": 15.6, "unit": "active ppm"},
      {"measurement": "Dosage required for 99.9% bacterial kill in 2 h (active ppm) Glutaraldehyde", "setting": "[2]; [5]", "value": 22.5, "unit": "active ppm"}
    ]},
    {"smiles": "O=[N+]([O-])C(CO)(CO)CO", "note": "[tris nitro, tris(hydroxymethyl)nitromethane]", "values": [
      {"measurement": "MBC (active ppm) Tris Nitro", "setting": "[1]; [6]", "value": 44.4, "unit": "active ppm"},
      {"measurement": "Dosage required for 99.9% bacterial kill in 2 h (active ppm) Tris Nitro", "setting": "[2]; [6]", "value": 180.0, "unit": "active ppm"}
    ]}
  ]
}
